This assay addresses T1, stripped human Hb (Homo sapiens, UniProt P68871+P69905).
T1 construct: from tissue; host or cells: human blood (red blood cell hemolysate, gel-filtered on Sephadex G-25 to remove BPG)
The experiment in a line: Oxygen equilibrium curves of stripped hemoglobin (Hemox Analyzer), P50 shift. It is filed as biochemical. Particulars: compound:Hb molar ratio 20:1, TES-saline buffer pH 7.4. The source says:
Human blood was withdrawn from non-smoking healthy volunteers (CDD) in heparinized microtubes and treated according to the procedure described by Riggs. See A. Riggs, Methods Enzymol. 1981, 76, 5. Red blood cells were washed three times with 0.85% saline and lysed by the addition of 1 volume of purified water per volume of packed red blood cells. Hemolysate was kept cold and passed through a Sephadex G-25 column (1.0×20 cm) equilibrated with 0.1 M NaCl with 10^−5 M EDTA pH 7.5, to remove BPG. The concentration of oxy-Hb was assessed by UV-Vis spectrophotometry (ε=58400 M^−1 cm^−1 at 577 nm per oxy-Hb tetramer).
Solutions of the test compounds (supra, 100 mM) were prepared in purified water and the pH was adjusted to 7.0-7.4 prior to incubations with stripped Hb in a molar ratio of 20:1. The mixtures were diluted in 3 ml of TES-saline buffer (30 mM TES, 140 mM saline, pH 7.4) and oxygen equilibrium curves were measured using a Hemox Analyzer apparatus (TCS Scientific Corp., USA). The P50 values and Hill coefficients were calculated by linear regression analysis from data points obtained between 40 and 60% oxygen saturation.

Structures are written as SMILES.

T1 sequence (P68871 2-147 limits assumed): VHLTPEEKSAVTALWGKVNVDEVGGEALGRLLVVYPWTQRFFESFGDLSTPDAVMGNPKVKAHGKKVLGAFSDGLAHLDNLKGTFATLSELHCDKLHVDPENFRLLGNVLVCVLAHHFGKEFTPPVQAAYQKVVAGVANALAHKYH
T1 sequence (P69905 2-142 limits assumed): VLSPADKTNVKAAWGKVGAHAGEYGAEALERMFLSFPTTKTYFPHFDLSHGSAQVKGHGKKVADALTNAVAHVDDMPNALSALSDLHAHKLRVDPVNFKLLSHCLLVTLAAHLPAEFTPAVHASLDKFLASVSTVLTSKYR

As to `O=C([O-])[C@@H](COP(=O)([O-])[O-])OP(=O)([O-])[O-].[Na+].[Na+].[Na+].[Na+].[Na+]` [BPG, 2,3-bisphospho-D-glyceric acid pentasodium salt, reference compound], the “relative effectiveness in lowering Hb affinity to oxygen (comparison in words)” value is reported as “BPG<ITPP<IHP”. With `CO[C@H]1O[C@H](CO)[C@@H](OP(=O)(O)O)[C@H](OP(=O)(O)O)[C@H]1OP(=O)(O)O` [Compound 8, 1-O-methyl-α-glucose 2,3,4-trisphosphate], the “shift of the Hb oxygenation curves (P50)” value is on record as 113%. `CO[C@H]1O[C@H](CO)[C@@H](OP(=O)(O)O)[C@H](OP(=O)(O)O)[C@@H]1OP(=O)(O)O` [Compound 10, 1-O-methyl-α-mannose 2,3,4-trisphosphate]: the “relative effectiveness in lowering Hb affinity to oxygen (comparison in words)” value is given as “generally more effective than their corresponding glucose” and the “shift of the Hb oxygenation curves (P50)” value was 144%.

Turning to `O=P(O)(O)O[C@H]1O[C@H](CO)[C@@H](OP(=O)(O)O)[C@H](OP(=O)(O)O)[C@H]1OP(=O)(O)O` [Compound 29, α-glucose 1,2,3,4-tetrakisphosphate], the “shift of the Hb oxygenation curves (P50)” value is given as 266%. On to `O=P(O)(O)O[C@@H]1O[C@H](CO)[C@@H](OP(=O)(O)O)[C@H](OP(=O)(O)O)[C@H]1OP(=O)(O)O` [Compound 30, β-glucose 1,2,3,4-tetrakisphosphate], for which the “shift of the Hb oxygenation curves (P50)” value amounted to 201%. `O=P(O)(O)O[C@H]1O[C@H](CO)[C@@H](OP(=O)(O)O)[C@H](OP(=O)(O)O)[C@@H]1OP(=O)(O)O` [Compound 31, α-mannose 1,2,3,4-tetrakisphosphate]: the “relative effectiveness in lowering Hb affinity to oxygen (comparison in words)” value is “generally more effective than their corresponding glucose”.

Regarding `O=P(O)(O)O[C@@H]1O[C@H](CO)[C@@H](OP(=O)(O)O)[C@H](OP(=O)(O)O)[C@@H]1OP(=O)(O)O` [Compound 32, β-mannose 1,2,3,4-tetrakisphosphate], the “relative effectiveness in lowering Hb affinity to oxygen (comparison in words)” value is reported as “generally more effective than their corresponding glucose”.

In the case of `O=P(O)(O)O[C@H]1O[C@H](CO)[C@H](OP(=O)(O)O)[C@H](OP(=O)(O)O)[C@H]1OP(=O)(O)O` [Compound 33, α-galactose 1,2,3,4-tetrakisphosphate], the “shift of the Hb oxygenation curves (P50)” value came to 226%.

`O=P(O)(O)O[C@@H]1O[C@H](CO)[C@H](OP(=O)(O)O)[C@H](OP(=O)(O)O)[C@H]1OP(=O)(O)O` [Compound 34, β-galactose 1,2,3,4-tetrakisphosphate]: the “shift of the Hb oxygenation curves (P50)” value amounted to 259%.

Turning to `CO[C@H]1O[C@H](COP(=O)(O)O)[C@@H](OP(=O)(O)O)[C@H](OP(=O)(O)O)[C@H]1OP(=O)(O)O` [Compound 41, 1-O-methyl-α-glucose tetrakisphosphate], the “shift of the Hb oxygenation curves (P50)” value was 264%.

As to `CO[C@H]1O[C@H](COP(=O)(O)O)[C@@H](OP(=O)(O)O)[C@H](OP(=O)(O)O)[C@@H]1OP(=O)(O)O` [Compound 42, 1-O-methyl-α-mannose tetrakisphosphate], the “relative effectiveness in lowering Hb affinity to oxygen (comparison in words)” value is “less effective than the other mannose tetrakisphosphates derivatives”. For the compound `O=P(O)(O)OC[C@H]1O[C@H](OP(=O)(O)O)[C@H](OP(=O)(O)O)[C@@H](OP(=O)(O)O)[C@@H]1OP(=O)(O)O` [Compound 47, α-glucose pentakisphosphate], the “shift of the Hb oxygenation curves (P50)” value is listed as 466%. On to `O=P(O)(O)OC[C@H]1O[C@H](OP(=O)(O)O)[C@@H](OP(=O)(O)O)[C@@H](OP(=O)(O)O)[C@@H]1OP(=O)(O)O` [Compound 49, α-mannose pentakisphosphate], for which the “relative effectiveness in lowering Hb affinity to oxygen (comparison in words)” value was “generally more effective than their corresponding glucose” and the “shift of the Hb oxygenation curves (P50)” value is 520%. With `O=P(O)(O)OC[C@H]1O[C@H](OP(=O)(O)O)[C@H](OP(=O)(O)O)[C@@H](OP(=O)(O)O)[C@H]1OP(=O)(O)O` [Compound 51, α-galactose pentakisphosphate], the “shift of the Hb oxygenation curves (P50)” value is reported as 449%. For the compound `O=P(O)(O)OC[C@H]1O[C@@H](O[C@H]2[C@H](OP(=O)(O)O)[C@@H](OP(=O)(O)O)C(OP(=O)(O)O)O[C@@H]2COP(=O)(O)O)[C@H](OP(=O)(O)O)[C@@H](OP(=O)(O)O)[C@H]1OP(=O)(O)O` (some centres unmarked) [Compound 55, lactose octakisphosphate], the “shift of the Hb oxygenation curves (P50)” value is on record as 550%. In the case of `O=P(O)(O)O[C@H]1[C@H](OP(=O)(O)O)[C@@H](OP(=O)(O)O)[C@H](OP(=O)(O)O)[C@@H](OP(=O)(O)O)[C@H]1OP(=O)(O)O` [IHP, myo-inositol hexakisphosphate, reference compound], the “relative effectiveness in lowering Hb affinity to oxygen (comparison in words)” value was “BPG<ITPP<IHP” and the “shift of the Hb oxygenation curves (P50)” value turned out to be 466%. On to `O=P1([O-])OC2C3OP(=O)([O-])OP(=O)([O-])OC3C3OP(=O)([O-])OP(=O)([O-])OC3C2OP(=O)([O-])O1.[Na+].[Na+].[Na+].[Na+].[Na+].[Na+]` (centres unmarked) [ITPP, myo-inositol trispyrophosphate hexasodium salt, reference compound], for which the “relative effectiveness in lowering Hb affinity to oxygen (comparison in words)” value is listed as “BPG<ITPP<IHP”.

The values are drawn from patent US20140155334A1, “POLYPHOSPHATE AND PYROPHOSPHATE DERIVATIVE OF SACCHARIDES” (Université de Strasbourg, priority 2010, published 2014).
